The target in data set [1] is T1, Tyrosinase (Mus musculus) (UniProt P11344).
T1 sequence (whole entry): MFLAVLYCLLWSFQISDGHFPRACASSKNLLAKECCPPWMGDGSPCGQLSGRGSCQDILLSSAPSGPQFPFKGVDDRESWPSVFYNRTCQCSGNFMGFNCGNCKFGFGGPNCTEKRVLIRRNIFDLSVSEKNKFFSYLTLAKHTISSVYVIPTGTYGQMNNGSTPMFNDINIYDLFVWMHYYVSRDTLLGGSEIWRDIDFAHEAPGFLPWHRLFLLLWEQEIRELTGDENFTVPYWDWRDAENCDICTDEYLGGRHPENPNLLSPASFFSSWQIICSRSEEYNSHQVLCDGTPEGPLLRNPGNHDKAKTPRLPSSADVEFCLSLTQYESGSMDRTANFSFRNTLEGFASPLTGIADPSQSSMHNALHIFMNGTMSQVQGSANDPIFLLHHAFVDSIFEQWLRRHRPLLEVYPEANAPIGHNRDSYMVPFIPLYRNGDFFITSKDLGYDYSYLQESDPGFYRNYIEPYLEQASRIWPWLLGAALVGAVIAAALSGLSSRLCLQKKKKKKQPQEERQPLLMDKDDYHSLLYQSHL
In words: Inhibition of tyrosinase in mouse B16F10 cells assessed as reduction of melanin production at 20 ug/ml after 72 hrs. Format: cell-based. The conditions noted are these: B16-F10.

The target of data set [2] is T2, Tyrosinase (Agaricus bisporus, UniProt O42713).
T2 sequence (O42713 whole entry): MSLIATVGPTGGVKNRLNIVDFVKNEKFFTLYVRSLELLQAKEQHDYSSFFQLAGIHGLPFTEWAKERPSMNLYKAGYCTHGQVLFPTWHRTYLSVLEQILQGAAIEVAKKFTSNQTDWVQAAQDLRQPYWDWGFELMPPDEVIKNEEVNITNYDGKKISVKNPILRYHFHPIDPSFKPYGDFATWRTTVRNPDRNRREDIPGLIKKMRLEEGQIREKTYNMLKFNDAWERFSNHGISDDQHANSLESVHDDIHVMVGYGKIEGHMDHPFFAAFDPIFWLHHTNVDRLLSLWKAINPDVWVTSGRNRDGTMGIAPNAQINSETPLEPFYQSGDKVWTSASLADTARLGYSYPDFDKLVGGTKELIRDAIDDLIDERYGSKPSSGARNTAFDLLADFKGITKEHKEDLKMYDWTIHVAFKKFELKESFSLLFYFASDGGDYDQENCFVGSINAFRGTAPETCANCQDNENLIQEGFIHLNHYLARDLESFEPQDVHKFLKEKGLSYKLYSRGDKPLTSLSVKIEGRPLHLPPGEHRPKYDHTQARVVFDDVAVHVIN
Description: Inhibition of mushroom tyrosinase using L-tyrosine as substrate after 5 mins by UV-spectrophotometric analysis

Data set [3] in a line: Cytotoxicity against mouse B16F10 cells assessed as cell viability at 20 ug/ml after 76 hrs by MTT assay. Format: cell-based, B16-F10. The conditions noted are these: read-out: Activity. Background: Tetrazolium assays rely on reduction of a dye to a coloured formazan, in cell work by metabolically active cells.
Data set [4] deals with T2, Tyrosinase. The source holds these as a separate data set.
Description: Inhibition of mushroom tyrosinase using L-DOPA as substrate after 5 mins by UV-spectrophotometric analysis
The target in data set [5] is Xanthine dehydrogenase/oxidase (Bos taurus, UniProt P80457).
Description: Inhibition of bovine milk XO assessed as decrease in uric acid formation after 5 mins by UV-spectrophotometric analysis
The target in data set [6] is T2, Tyrosinase. Nature of the data set: Competitive inhibition of mushroom tyrosinase using L-DOPA as substrate after 5 mins by Lineweaver-Burk plot analysis.

Broadly, the inhibition is the relative decrease from the control value, in per cent. The term IC50 denotes the point on the concentration scale where inhibition reaches its midpoint. Lower therefore signals greater potency. The Ki is the equilibrium dissociation constant of an inhibitor or competing ligand from its target. The low end stands for a stronger hold on the target, the high end for a looser hold on the target.

Xanthine dehydrogenase/oxidase, sequence (P80457 whole entry): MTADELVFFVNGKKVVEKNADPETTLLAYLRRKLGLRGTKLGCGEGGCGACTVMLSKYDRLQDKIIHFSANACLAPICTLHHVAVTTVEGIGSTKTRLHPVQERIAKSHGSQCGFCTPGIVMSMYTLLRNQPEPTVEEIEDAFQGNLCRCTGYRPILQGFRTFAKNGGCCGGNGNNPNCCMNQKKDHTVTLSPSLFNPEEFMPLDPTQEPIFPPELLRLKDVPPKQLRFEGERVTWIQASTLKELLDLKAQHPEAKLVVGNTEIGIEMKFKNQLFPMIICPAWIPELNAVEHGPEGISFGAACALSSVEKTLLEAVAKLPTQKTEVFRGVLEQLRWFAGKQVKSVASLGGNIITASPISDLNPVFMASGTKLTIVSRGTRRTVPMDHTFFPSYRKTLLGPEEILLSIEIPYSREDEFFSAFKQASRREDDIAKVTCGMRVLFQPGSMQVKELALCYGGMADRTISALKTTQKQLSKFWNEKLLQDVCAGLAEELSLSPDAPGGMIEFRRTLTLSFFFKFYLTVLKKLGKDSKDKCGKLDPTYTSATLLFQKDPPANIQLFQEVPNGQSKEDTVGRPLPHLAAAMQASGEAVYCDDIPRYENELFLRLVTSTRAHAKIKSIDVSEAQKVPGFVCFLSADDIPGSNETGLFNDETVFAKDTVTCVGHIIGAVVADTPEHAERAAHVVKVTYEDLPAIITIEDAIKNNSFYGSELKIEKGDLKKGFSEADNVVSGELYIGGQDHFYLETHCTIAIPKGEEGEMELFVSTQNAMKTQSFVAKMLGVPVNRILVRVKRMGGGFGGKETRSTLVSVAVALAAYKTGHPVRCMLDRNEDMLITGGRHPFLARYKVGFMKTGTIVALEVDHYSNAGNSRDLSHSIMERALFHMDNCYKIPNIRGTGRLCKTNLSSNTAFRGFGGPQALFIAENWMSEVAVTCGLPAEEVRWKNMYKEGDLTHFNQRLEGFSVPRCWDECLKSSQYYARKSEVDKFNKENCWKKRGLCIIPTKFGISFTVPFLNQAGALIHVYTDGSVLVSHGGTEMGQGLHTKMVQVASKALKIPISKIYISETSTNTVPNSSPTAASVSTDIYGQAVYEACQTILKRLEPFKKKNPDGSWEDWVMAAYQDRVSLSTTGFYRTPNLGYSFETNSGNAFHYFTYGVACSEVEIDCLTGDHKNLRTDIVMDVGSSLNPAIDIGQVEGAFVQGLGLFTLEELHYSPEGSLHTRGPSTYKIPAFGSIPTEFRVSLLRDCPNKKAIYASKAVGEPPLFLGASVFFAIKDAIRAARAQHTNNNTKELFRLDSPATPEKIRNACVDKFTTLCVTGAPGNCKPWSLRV

Turning to `Cc1cccc(C(=O)Nc2cccc(C(=O)/C=C/c3ccc4c(c3)c3ccccc3n4C)c2)c1`, in data set [1], the inhibition came out at 21.7%. The values for the IC50 (against Tyrosinase [2]; at Tyrosinase [4]; in data set [5]) were 35.2 µM, 29.3 µM and 20.7 µM, respectively. Further, in data set [3], the viability at 76 h, 20 ug/ml was found to be 83.6%.
Turning to `Cn1c2ccccc2c2cc(/C=C/C(=O)c3cccc(NC(=O)c4cccc(F)c4)c3)ccc21`, the inhibition in data set [1] turned out to be 20.6%. The 50% inhibitory concentration (IC50) came to 35.2 µM against Tyrosinase [2], 42 µM against Tyrosinase [4] and 4.5 µM in data set [5]. The viability at 76 h, 20 ug/ml in data set [3] was found to be 83.9%.
The corresponding values for `Cn1c2ccccc2c2cc(/C=C/C(=O)c3cccc(NC(=O)c4ccccc4F)c3)ccc21` are 40.5%, 18.2 µM, 15.2 µM, 79.5 µM and 84.5%.
On the same counts, the results for `Cn1c2ccccc2c2cc(/C=C/C(=O)c3cccc(NC(=O)/C=C/c4ccccc4)c3)ccc21` are 15.9%, 85.2 µM, 78.2 µM, 5.1 µM and 81%.
Take `Cn1c2ccccc2c2cc(/C=C/C(=O)c3cccc(NC(=O)c4ccco4)c3)ccc21`: the inhibition in data set [1] amounted to 10.7%. Further, the results for the IC50 (on Tyrosinase [2]; against Tyrosinase [4]; in data set [5]) were 46.5 µM, 60.3 µM and over 100 µM, respectively. Besides, in data set [3], the viability at 76 h, 20 ug/ml amounted to 86.6%.
On the same counts, the results for `Cn1c2ccccc2c2cc(/C=C/C(=O)c3cccc(NC(=O)c4cccc(Cl)c4)c3)ccc21` are 29.4%, 48.1 µM, 56.5 µM, 4.4 µM and 80.5%.
The corresponding values for `Cc1ccccc1C(=O)Nc1cccc(C(=O)/C=C/c2ccc3c(c2)c2ccccc2n3C)c1` are 8.1%, over 100 µM, over 100 µM, over 100 µM and 60.9%.
On the same counts, the results for `Cn1c2ccccc2c2cc(/C=C/C(=O)c3cccc(NC(=O)c4ccccc4Cl)c3)ccc21` are 9.7%, over 100 µM, over 100 µM, 30.3 µM and 72%.
Turning to `CC(=O)Nc1cccc(C(=O)/C=C/c2ccc3c(c2)c2ccccc2n3C)c1`, the inhibition in data set [1] came out at 15.6%. The concentration for half-maximal inhibition (IC50) against Tyrosinase [2] was 80.2 µM; on Tyrosinase [4] it was 77.5 µM; in data set [5], over 100 µM. For the same compound, in data set [3], the viability at 76 h, 20 ug/ml was 80.6%.
The corresponding values for `Cn1c2ccccc2c2cc(/C=C/C(=O)c3cccc(NC(=O)c4ccc(Cl)cc4)c3)ccc21` are 36.1%, 17.5 µM, 15.1 µM, 5.6 µM and 81.1%.
As to `Cn1c2ccccc2c2cc(/C=C/C(=O)c3cccc(N)c3)ccc21`, in data set [1], the inhibition was determined as 20.1%. Moreover, the IC50 at Tyrosinase [2] is 48.2 µM; against Tyrosinase [4], 50.5 µM; in data set [5], 48.5 µM. Moreover, the viability at 76 h, 20 ug/ml in data set [3] amounted to 76.4%.
The corresponding values for `Cn1c2ccccc2c2cc(/C=C/C(=O)c3cccc(NC(=O)c4cccc(Br)c4)c3)ccc21` are 10.2%, over 100 µM, over 100 µM, 88.2 µM and 78.9%.
The corresponding values for `Cn1c2ccccc2c2cc(/C=C/C(=O)c3cccc(NC(=O)c4ccc(C(C)(C)C)cc4)c3)ccc21` are 11.6%, over 100 µM, over 100 µM, 57.1 µM and 84%.
For `Cn1c2ccccc2c2cc(/C=C/C(=O)c3cccc(NC(=O)c4ccccc4)c3)ccc21`, the inhibition in data set [1] worked out at 42.5%. Further, the IC50 was 14 µM against Tyrosinase [2], 15.1 µM on Tyrosinase [4] and 42.7 µM in data set [5]. Also, the viability at 76 h, 20 ug/ml in data set [3] was found to be 86.7%. Moreover, the affinity on Tyrosinase [6], expressed as Ki, was 11.8 µM.
On to `Cn1c2ccccc2c2cc(/C=C/C(=O)c3cccc(NC(=O)c4cccs4)c3)ccc21`, for which the inhibition in data set [1] was 12.8%. Moreover, the IC50 is 62.4 µM at Tyrosinase [2], 71.9 µM against Tyrosinase [4] and over 100 µM in data set [5]. The viability at 76 h, 20 ug/ml in data set [3] stood at 82.1%.
Regarding `Cn1c2ccccc2c2cc(/C=C/C(=O)c3cccc(NC(=O)c4ccc(F)cc4)c3)ccc21`, in data set [1], the inhibition worked out at 24%. The results for the IC50 (on Tyrosinase [2]; against Tyrosinase [4]; in data set [5]) were 15.1 µM, 16.5 µM and 25.8 µM, respectively. Besides, in data set [3], the viability at 76 h, 20 ug/ml was found to be 88.7%.
`Cc1ccc(C(=O)Nc2cccc(C(=O)/C=C/c3ccc4c(c3)c3ccccc3n4C)c2)cc1`: the inhibition in data set [1] was 25.4%. Moreover, the figures for the IC50 (against Tyrosinase [2]; against Tyrosinase [4]; in data set [5]) were 15.1 µM, 15.2 µM and 5.3 µM, respectively. The viability at 76 h, 20 ug/ml in data set [3] came out at 82.7%.
On the same counts, the results for `Cn1c2ccccc2c2cc(/C=C/C(=O)c3cccc(NC(=O)c4cccc(C(F)(F)F)c4)c3)ccc21` are 30.1%, 65.2 µM, 75 µM, 5.1 µM and 80.1%.
On the same counts, the results for `Cn1c2ccccc2c2cc(/C=C/C(=O)c3cccc(NC(=O)C4CC4)c3)ccc21` are 30%, 80.2 µM, 74.5 µM, 4.3 µM and 79.5%.

These data come from ChEMBL document CHEMBL2086274, “Synthesis, biological evaluation, and molecular docking of N-{3-[3-(9-methyl-9H-carbazol-3-yl)-acryloyl]-phenyl}-benzamide/amide derivatives as xanthine oxidase and tyrosinase inhibitors” (Bioorg Med Chem, 2012).
